Source: the supplement of paper PMC4314810
± gives the standard deviation of the averaged measurements.

Tested on: MCF7
Assay: HRG-induced Akt activation (dPAkt = log2 pAkt/Akt HRG-stimulated minus log2 pAkt/Akt basal) (log2 ratio difference); higher = stronger HRG-induced Akt(T308) phosphorylation
Conditions: miRNA mimic concentration 10 nM; time after transfection 72 h; heregulin 10 ng/ml; stimulation time 1 h
Outline: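 MCF7 cells ([…], 96-well plates) carrying one of 879 miRNA mimics, transfected at 10 nM final with Lipofectamine RNAiMax in two biological replicates, were stimulated after 72 h with 10 ng/ml heregulin-beta1 for 1 h or left unstimulated. Phospho-Akt(T308) and total Akt in cells fixed with 4% PFA were read by In-Cell Western on an Odyssey and corrected for column-wise fixation decay to give log2(pAkt/Akt). Heregulin-induced Akt activation is the replicate mean of stimulated minus unstimulated ratios.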

| Sequence | HRG-induced Akt activation (log2) |
| --- | --- |
| UAUGUGCCUUUGGACUACAUCG | 1.56 ± 0.13 |
| UGGAUUUCUUUGUGAAUCACCA | 1.87 ± 0.11 |
| AAAAGUAAUUGUGGUUUUUGCC | 1.07 ± 0.085 |
| AUGGUUCCGUCAAGCACCAUGG | 1.87 ± 0.22 |
| CAUCCCUUGCAUGGUGGAGGG | 1.97 ± 0.25 |
| UCUUCUCUGUUUUGGCCAUGUG | 1.27 ± 0.041 |
| UGUAAACAUCCCCGACUGGAAG | 0.646 ± 0.057 |
| CUUGGCACCUAGCAAGCACUCA | 1.45 ± 0.58 |
| GUUGUGUCAGUUUAUCAAAC | 1.54 ± 0.089 |
| UUCACCACCUUCUCCACCCAGC | 1.57 ± 0.62 |
| GCCCAAAGGUGAAUUUUUUGGG | 1.33 ± 0.1 |
| CCUGGAAACACUGAGGUUGUG | 1.61 ± 0.12 |
| UAAAUCCCAUGGUGCCUUCUCCU | 2.03 ± 0.12 |
| AACAUUCAUUGCUGUCGGUGGGU | 1.77 ± 0.45 |
| GCCCGCGUGUGGAGCCAGGUGU | 1.39 ± 0.14 |
| GAAGGCGCUUCCCUUUAGAGCG | 1.1 ± 0.5 |
| CGGAUGAGCAAAGAAAGUGGUU | 1.19 ± 0.07 |
| UUCACAGUGGCUAAGUUCCGC | 1.73 ± 0.22 |
| UCUAGUAAGAGUGGCAGUCGA | 1.322 ± 0.0056 |
| AGAUCGACCGUGUUAUAUUCGC | 2.02 ± 0.14 |
| UAACACUGUCUGGUAACGAUGU | 1.04 ± 0.078 |
| CAAGUCACUAGUGGUUCCGUU | 1.49 ± 0.5 |
| CUUGGUUCAGGGAGGGUCCCCA | 1.58 ± 0.43 |
| AAUCCUUUGUCCCUGGGUGAGA | 1.76 ± 0.094 |

| Sequence | HRG-induced Akt activation (log2) |
| --- | --- |
| AAAUUAUUGUACAUCGGAUGAG | 1.48 ± 0.61 |
| ACUGGACUUAGGGUCAGAAGGC | 2.01 ± 0.38 |
| AACAGGUGACUGGUUAGACAA | 2.3 ± 0.13 |
| UGUUCAUGUAGAUGUUUAAGC | 1.08 ± 0.15 |
| AACAUUCAACCUGUCGGUGAGU | 2.38 ± 0.33 |
| CUGGAUGGCUCCUCCAUGUCU | 1.96 ± 0.42 |
| UCAUAUUGCUUCUUUCU | 1.79 ± 0.17 |
| UAAGUGCUUCCAUGUUUGAGUGU | 1.17 ± 0.15 |
| UCUCUGGGCCUGUGUCUUAGGC | 1.55 ± 0.3 |
| AGGCAAGAUGCUGGCAUAGCU | 1.18 ± 0.13 |
| UGCAACGAACCUGAGCCACUGA | 1.49 ± 0.14 |
| UGACAACUAUGGAUGAGCUCU | 1.53 ± 0.29 |
| UUGCUCACUGUUCUUCCCUAG | 0.86933 ± 0.00015 |
| GGAUUCCUGGAAAUACUGUUCU | 1.2 ± 0.74 |
| AUUCCUAGAAAUUGUUCAUA | 1.18 ± 0.4 |
| AGGGUAAGCUGAACCUCUGAU | 1.51 ± 0.17 |
| ACCCUAUCAAUAUUGUCUCUGC | 1.33 ± 0.23 |
| AGAGGUAUAGGGCAUGGGAA | 1.88 ± 0.23 |
| UAAUUGCUUCCAUGUUU | 1.75 ± 0.088 |
| UCAGGCCAGGCACAGUGGCUCA | 1.57 ± 0.41 |
| GAGGGUCUUGGGAGGGAUGUGAC | 1.44 ± 0.081 |
| UGGAAGACUAGUGAUUUUGUUGU | 2.15 ± 0.38 |
| GCCCUCCGCCCGUGCACCCCG | 1.17 ± 0.14 |
| UACCACAGGGUAGAACCACGG | 1.43 ± 0.074 |

| Sequence | HRG-induced Akt activation (log2) |
| --- | --- |
| UCCGGUUCUCAGGGCUCCACC | 1.83 ± 0.26 |
| UGCUUCCUUUCAGAGGGU | 1.61 ± 0.34 |
| GUAGAGGAGAUGGCGCAGGG | 1.33 ± 0.22 |
| UGAGUUGGCCAUCUGAGUGAG | 1.61 ± 0.27 |
| CUCCUGACUCCAGGUCCUGUGU | 1.43 ± 0.33 |
| UACUCCAGAGGGCGUCACUCAUG | 1.02 ± 0.78 |
| UCUGGGCAACAAAGUGAGACCU | 0.753 ± 0.69 |
| GAUUAGGGUGCUUAGCUGUUAA | 1.67 ± 0.28 |
| AGGAGGCAGCGCUCUCAGGAC | 1.54 ± 0.61 |
| UAUGGCUUUUUAUUCCUAUGUGA | 1.27 ± 0.27 |
| AACUGGCCCUCAAAGUCCCGCU | 2.215 ± 0.013 |
| UCCCUGUCCUCCAGGAGCUCACG | 1.79 ± 0.13 |
| CACCCGUAGAACCGACCUUGCG | 1.4 ± 0.22 |
| CAAAAGUAAUUGUGGAUUUUGU | 1.5 ± 0.065 |
| UCAGAACAAAUGCCGGUUCCCAGA | 1.23 ± 0.54 |
| AAGUGCCUCCUUUUAGAGUGUU | 0.982 ± 0.27 |
| UAGAUAAAAUAUUGGUACCUG | 1.34 ± 0.55 |
| UCUAUACAGACCCUGGCUUUUC | 1.14 ± 0.18 |
| CUAUACAAUCUAUUGCCUUCCC | 1.44 ± 0.43 |
| AUCCCUUGCAGGGGCUGUUGGGU | 1.02 ± 0.69 |
| CAGUGCAAUGUUAAAAGGGCAU | 0.895 ± 0.16 |
| CCACCACCGUGUCUGACACUU | 1.84 ± 0.088 |
